# Measurements reported in US4678783A, “Substituted isoquinolinesulfonyl compounds” (Asahi Kasei Kogyo Kabushiki Kaisha, priority 1984, dated 1987).
# Like-named read-outs stand apart in the source and are kept apart here.
# What was measured:
# [1] = tested on: vertebral artery; experiment: Blood Flow Volume Increase of Vertebral Artery; assay type: in vivo, Mongrel dogs; details: intravenous, 0.3 mg/kg, anesthetized dogs
# Description: (§1) A plethysmographic probe (manufactured and sold by NIHON KODEN CO., LTD.) was mounted on the femoral and vertebral arteries, and blood flow volume was measured by means of a electromagnetic blood flowmeter (type:MF-27, manufactured and sold by NIHON KODEN CO., LTD.). Under these conditions, compounds of the present invention were intravenously administered through a polyethylene tube inserted to a femoral veinlet, and change in blood flow volume was measured by means of the electromagnetic blood flowmeter.
# (§2) Effect of the compounds of the present invention on dilation of femoral and vertebral arteries was examined according to the method as mentioned hereinbefore.
# [2] = tested on: mesenteric artery of a rabbit; experiment: Relaxation of Mesenteric Artery (KCl-contracted spiral strip); parameters: species or system rabbit of Japanese local variety; details: Oryctolagus cuniculus
# Description: A rabbit of Japanese local variety weighing about 3 kg was subjected to blood-letting to death. Then, abdomen of the rabbit was dissected to pick up a mesenteric artery. […] Thus, the shrinkage and relaxation of the artery was ready to be measured as a load on the transducer. To the organ bath, KCl was added in an amount which makes the artery shrink at a half length that in 15 to 20 mM aqueous solution. Then, hydrochlorides of the compounds of the present invention were added to the organ bath to observe relaxation effect on the artery.
# Effect of the compounds of the present invention on relaxation of mesenteric artery was examined according to the method as mentioned hereinbefore.
# [3] = tested on: femoral artery; experiment: Blood Flow Volume Increase of Femoral Artery; assay type: in vivo, Mongrel dogs; details: intravenous, 0.3 mg/kg, anesthetized dogs
# Description: as §1, §2
# [4] = Acute Toxicity; details: mouse, in vivo; ddY male mice
# Description: Acute toxicity of the compounds of the present invention was determined according to the method given below, and the results are shown in Table 15. […] It is known from the results that the acute toxicity of the compounds of the present invention is satisfactorily low.
# Using ddY male mice, acute toxicity of the compounds of the present invention was examined according to the method proposed by K. Takagi et al. (K. Takagi and H. Ozawa, "Experimental Techniques in Pharmacology," p200-206 (1960), NANZANDO CO., LTD.).
# Acute toxicity test of the compounds of the present invention was effected according to the method as mentioned hereinbefore.
# [5] = tested on: male spontaneously hypertensive rats (SHR); experiment: Reduction of Blood Pressure (systolic, tail plethysmographic method, oral); assay type: in vivo, rat (SHR, Wister Kyoto); details: 100 mg/kg
# Description: Male spontaneously hypertensive rats (SHR, Wister Kyoto) weighing 300 to 350 g were used. Systolic blood pressure was measured indirectly by the tail plethysmographic method in conscious SHR, just prior to, and 1, 2, 4 and 6 hours after oral administration of test drugs. Test drugs, dissolved in deionized water, were administered orally in a volume of 10 ml-solution/kg-rat. Reduction in systolic blood pressure (ΔP, mmHg) was calculated by substracting a systolic blood pressure after administration from that just prior to administration.
# Effect of the compounds of the present invention on reduction of blood pressure was examined according to the method as mentioned hereinbefore.
# [6] = tested on: basilar artery; experiment: Effect on a "Two-Hemorrhage" Canine Model of Delayed Cerebral Vasospasm; assay type: in vivo, Mongrel dogs; details: intravenous infusion over 30 minutes on Day 7
# From the text: The isoquinolinesulfonyl compound represented by the formula (I) and salt thereof with a pharmacologically acceptable acid according to the present invention can increase the diameter of a blood vessel, and have an excellent smooth muscle relaxation action for a blood vessel, an excellent flow volume increase action for blood and an antihypertensive action. […] The above-mentioned relaxation action for a blood vessel was confirmed by the relaxation of the mesenteric artery of a rabbit in accordance with the method described later. The above-mentioned flow volume increase action for blood was confirmed by the blood flow volume increase of dog's femoral and vertebral arteries in accordance with the method described later. The above-mentioned antihypertensive action was confirmed by the indirect tail plethysmographic method of systolic blood pressure after oral administration of test drugs using male spontaneously hypertensive rats in accordance with the method described later. The effects of the isoquinolinesulfonyl derivatives of this invention on a "two-hemorrhage" canine model of delayed cerebral vasospasm were examined. The method of inducing a cerebral vasospasm was the same as that reported by Varsos et al. (Journal of Neurosurgery, volume 58, p11-17, 1983). […] As far as is known, these isoquinolinesulfonyl derivatives are the first drugs which can reverse "two-hemorrhage" cerebral vasospasm by its systemic use.
# Mongrel dogs of either sex weighing 7 to 11 kg were used. All procedures were performed under anesthesia with sodium pentobarbital (20 to 30 mg/kg, intravenous administration) after premedication with ketamine hydrochloride (12 mg/kg, intramuscular administration) and spontaneous respiration through an endotracheal intubation.
# The method of inducing a "two-hemorrhage" canine model of subarachnoid hemorrhage was essentially the same as that reported by Varsos et al. (Journal of Neurosurgery, volume 58, p 11-17, 1983); two successive administrations were effected, two days apart (on Day 1 and Day 3), of fresh autogenous blood into the cisterna magna. A control angiogram was taken by a direct puncture of the vertebral artery on Day 1 before the blood injection. The second angiogram was made to confirm the presence of a vasospasm on Day 7.
# On Day 7, after the occurrence of a chronic vasospasm was confirmed by the second angiogram, the compounds of the present invention were intrvenously infused from the femoral vein with a Harvard pump over a period of 30 minutes. Angiograms were taken from the initiation of the infusion.
# The diameter of the basilar artery was measured on the angiogram by means of a microdensitometer (SAKURA DENSITOMETER PD-7R). The effect on this cerebral vasospasm model of the compounds of the present invention was expressed as an increased percentage of the diameter after the infusion of the compounds of the present invention to that before the infusion.
# Effect of the compounds of the present invention on a "two-hemorrhage" canine model of delayed cerebral vesospasm was examined according to the method as mentioned hereinbefore.
Structure (SMILES),Increase in vertebral artery blood flow [1] [%],EC50 ([2]; read-out: ED50) [nM],Increase in femoral artery blood flow [3] [%],LD50 [4] [mg/kg],ΔPmax (maximally reduced blood pressure) [5] [mmHg],Increase in diameter of basilar artery ([6]; 3 mg/kg) [%],Increase in diameter of basilar artery ([6]; 10 mg/kg) [%],"EC50 ([2]; concentration of the hydrochloride attaining 50% of complete relaxation, rabbit mesenteric artery contracted with KCl, read-out: ED50 (the source's name)) [nM]",Increase in diameter of basilar artery ([6]; 1 mg/kg) [%]
"O=S(=O)(c1cccc2c(O)nccc12)N1CCCNCC1 [Compound (83), 1-(1-hydroxy-5-isoquinolinesulfonyl)homopiperazine]",48,3000,30,145,42,19,20,–,–
"O=S(=O)(c1cccc2cnccc12)N1CCCNCC1 [Compound (1), 1-(5-isoquinolinesulfonyl)homopiperazine]",160,–,48,73.5,80,33,45,800,21
